The results in this text go back to patent US20090203685A1, “ANTI-PROLIFERATIVE COMPOUNDS FROM A 3-ARYL-COUMARINE OR 3-ARYL-QUINOLIN-2-ONE AND USES THEREOF” (EOS (ETHICAL ONCOLOGY SCIENCE) S.P.A., priority 2006, published 2009).

For one series, the system named is Jurkat. Kind of series: Cell cycle analysis, Jurkat. Conditions: 500 nM. The class given is cell-based. On the procedure:
(§1) The cells are pelleted by gentle centrifugation 1200 rpm/5 min/4° C., then the supernatant is discarded and the cells are fixed with 1 mL of PBS/Ethanol 70% overnight at −20° C. The tubes are then centrifuged during 5 minutes at 1200 rpm and the supernatant is removed. The pellet is then re-suspended in 450 μL of PBS before 50 μL of RNAse (1 mg/mL) and 5 μL of propidium iodide (2 mg/mL) are added. Each tube is left 30 minutes at 37° C. and immediately analysed by flow cytometry after incubation.
(§2) A biparametric dot plot representation FL3 peak vs FL3 integer is plotted and the cells located on the diagonal are gated and analysed on a histogram representing the number of cells as a function of the FL3 peak.
(§3) To assess the relative position of cursors defining relative proportion of cells in subG1, G1, S or G2 phase of the cell cycle, G1 and G2 peaks are to be defined first:
(§4) The G1 peak is defined as the major peak in absence of treatment (generally X=200);
(§5) The G2 peak is centered on the value which is twice the value of the G1 peak (generally X=400).
(§6) Cells in subG1 phase are plotted in the part of the histogram preceding the G1 peak (generally X<200) and cells in S phase are enclosed in the area between the G1 and G2 peaks.
(§7) On this graphic, subG1, G1, S and G2/M phases of the cell cycle can thus be defined.
(§8) Viability and cell cycle profile, tested with compound (01), at 500 nM: […]

The test system of a further series is PC3. The series can be described thus: Cell cycle analysis, PC3. The format is cell-based. Conditions: 500 nM. The method, then:
as §1, §2, §3, §4, §5, §6, §7, §8

Series [1] in a line: Viability (propidium iodide staining), NCI-H460. The format is cell-based. Conditions: human, NCI-H460 cells (lung), NCI-H460 lung (NSCLC), 500 nM. On the procedure:
(§9) Propidium iodide (PI) cannot normally cross the cell membrane; it is thus excluded by viable cells but not from dying or dead cells, having a damaged membrane, where it intercalates into double-stranded nucleic acids and fluoresces when excited at 488 nm.
(§10) The cells are pelleted by gentle centrifugation 1200 rpm/5 min/4° C., then the supernatant is discarded and replaced by 1 mL of fresh medium. One hundred microliters of propidium iodide (40 μg/mL) are added to 400 μL of the cell suspension in a FACS tube and viability is measured by flow cytometry as the percentage of cells whose fluorescence recorded on FL-3 channel is comprised between 0 and 2.
as §8

In another series the test system is U937. The series can be described thus: Cell cycle analysis, U937. The format is cell-based, human. Conditions: 500 nM. The method, then: as §1, §2, §3, §4, §5, §6, §7, §8
A short description of series [2]: Viability (propidium iodide staining), U937. The format is cell-based. Conditions: human, U937 cells (myeloid), 500 nM. The method, then: as §9, §10, §8
A further series concerns U937 cells. Kind of series: Apoptosis assays by flow cytometry (caspase 3, annexin-V, sub-G1, G2/M, PI) in U937 cells. The class given is cell-based, human. Conditions: 0.5 μM, 4 to 24 hours. The method, then: FIG. 4: This figure depicts the time course of cellular effects induced by 0.5 μM of compound 01 in U937 cells.
The percentage of cells showing activated Caspase 3 and phosphadityl serine exposure at the outer face of the plasma membrane were determined by flow cytometry, according the enclosed protocols. Both assays enable to detect early markers of apoptosis. […] Such DNA content is classically used as a marker of apoptosis. […] Finally, in this same experiment, the percentage of dead cells was determined by incorporation of propidium iodine. […]
Wells corresponding to 4, 6, 8, 10 hours of incubation and Control 1 were analyzed on day 1.
Wells corresponding to 12, 14, 16, 20, 24 hours of incubation and Control 2 were analyzed on day 2. […]
Briefly, 5×10^5 cells were pelleted by centrifugation 1600 rpm/4° C., resuspended in 100 μl of ice-cold 1× Annexin-V Binding Buffer containing 1 μl of Annexin V-FITC solution and 5 μl of PI (250 μg/ml). After 15 minutes of incubation on ice in the dark, 400 μl of 1× binding buffer were added and cell preparations analysed by flow cytometry. […]
For each data point, a minimum of 20.000 cells were analysed.
Caspase-3,7 activity and Annexin-V binding were quantified using the FL-1 channel while PI staining was quantified using the FL-4 channel. […]
Background: A flow cytometer gives signals particle by particle.

In series [3] the test system is lymphoid and myeloid tumor cells. Kind of series: Viability and cell cycle profile, conclusion for lymphoid and myeloid tumor cells. Conditions: 500 nM; apoptotic cell cycle profile. The format is cell-based. On the procedure:
as §9, §10, §1, §8

Series [4] is described as follows: Viability (propidium iodide staining), Jurkat. The format is cell-based. Conditions: human, Jurkat cells, 500 nM. On the procedure:
as §9, §10, §8

SMILES strings stand for the structures.

As usually defined, the viability is a read-out of living cells in per cent, often relative to untreated cells.

Regarding `COc1cc(NC(=S)NC(=O)/C=C/c2ccco2)ccc1-c1cc2ccccc2oc1=O` [Compound 01, (2E)-3-(2-furyl)-N-({[3-methoxy-4-(2-oxo-2H-chromen-3-yl)phenyl]amino}carbonothioyl)acrylamide], the “Cell cycle profile - 72 h” value with Jurkat is “Strong sub-G1”; in the series with PC3, “G2/M accumulation”; with U937, “Strong sub-G1”. Further, the viability at 48 h, 0.5 µM in series [1] (48 h) is 80%; in series [2] (48 h), 25%; in series [4] (48 h) it was 4%. Further, the viability at 72 h, 0.5 µM in series [1] (72 h) came to 80%; in series [2] (72 h), 6%; in series [4] (72 h), 1%. Besides, in the series on U937 cells, the “Cytostatic effect on U937 cells (early increase of G2/M population)” value is recorded as “cytostatic effect”. For the same compound, the “Induction of apoptosis (activated caspase 3, phosphatidylserine exposure, sub-G1 DNA content)” value with U937 cells was “induces apoptosis”. Further, the “Effect on lymphoid and myeloid tumor cells” value in series [3] is listed as “cytotoxic effect”.
